Where two headings read alike, the source gives them in different places.
Key:
[1] = target: Myeloid Cell Leukemia 1 (Mcl-1) (Homo sapiens (Human), UniProt Q07820); assay: Terbium labeled Mcl-1 HTRF binding assay, displacement of Cy5-labeled BIM BH3 peptide; conditions: 25 pM Tb-Mcl-1, 8 nM Cy5 Bim peptide, 60 minutes at room temperature, read-out: Tb-MCL1 Ki
Description: Terbium labeled Myeloid Cell Leukemia 1 (Mcl-1) homogeneous time-resolved fluorescence (HTRF) binding assay utilizing the BIM BH3 peptide (H2N—(C/Cy5Mal) WIAQELRRIGDEFN-OH) as the binding partner for Mcl-1.
This assay evaluated inhibition of the BH3 domain: Mcl-1 interaction by measuring the displacement of Cy5-labeled BIM BH3 peptide (H2N—(C/Cy5Mal) WIAQELRRIGDEFN-OH) in the HTRF assay format.
The following assay and stock buffers were prepared for use in the assay: (a) Stock buffer: 10 mM Tris-HCl, pH=7.5+150 mM NaCl, filtered, sterilized, and stored at 4° C.; and (b) 1× assay buffer, where the following ingredients were added fresh to stock buffer: 2 mM dithiothreitol (DTT), 0.0025% Tween-20, 0.1 mg/mL bovine serum albumin (BSA). The 1×Tb-Mcl-1+Cy5 Bim peptide solution was prepared by diluting the protein stock solution using the 1× assay buffer (b) to 25 pM Tb-Mcl-1 and 8 nM Cy5 Bim peptide.
Using the Acoustic ECHO, 100 nL of 100× test compound(s) were dispensed into individual wells of a white 384-well Perkin Elmer Proxiplate, for a final compound concentration of 1× and final DMSO concentration of 1%. Inhibitor control and neutral control (NC, 100 nL of 100% DMSO) were stamped into columns 23 and 24 of assay plate, respectively. Into each well of the plate was then dispensed 10 μL of the 1×Tb-Mcl-1+Cy5 Bim peptide solution. The plate was centrifuged with a cover plate at 1000 rpm for 1 minute, then incubated for 60 minutes at room temperature with plates covered.
The TR-FRET signal was read on an BMG PHERAStar FSX MicroPlate Reader at room temperature using the HTRF optic module (HTRF: excitation: 337 nm, light source: laser, emission A: 665 nm, emission B: 620 nm, integration start: 60 μs, integration time: 400 μs).
The BMG PHERAStar FSX MicroPlate Reader was used to measure fluorescence intensity at two emission wavelengths—665 nm and 620 nm—and report relative fluorescence units (RFU) for both emissions, as well as a ratio of the emissions (665 nm/620 nm)*10,000. The RFU values were normalized to percent inhibition as follows:
% inhibition(((NC−IC)−(compound−IC))/(NC−IC))*100
where IC (inhibitor control, low signal)=mean signal of 1× Tb-MCl-1+Cy5 Bim peptide+inhibitor control or 100% inhibition of Mcl-1; NC (neutral control, high signal)=mean signal 1×Tb-MCl-1+Cy5 Bim peptide with DMSO only or 0% inhibition
An 11-point dose response curve was generated to determine IC50 values (using GenData) based on the following equation:
where Y=% inhibition in the presence of X inhibitor concentration; Top=100% inhibition derived from the IC (mean signal of Mcl-1+inhibitor control); Bottom=0% inhibition derived from the NC (mean signal of Mcl-1+DMSO); Hillslope=Hill coefficient; and IC50=concentration of compound with 50% inhibition in relation to top/neutral control (NC).
Representative compounds of the present invention were tested according to the procedure as described above, with results as listed in the Table below (n.d. means not determined).

[2] = test system: MOLP-8 human multiple myeloma cell line; assay: Caspase-Glo 3/7 apoptosis induction assay in MOLP-8 cells; type: cell-based; conditions: caspase-3/7 activity, 2 hours at 37° C., averaged over all runs on all batches, read-out: MOLP8 AC50
From the text: MCL-1 is a regulator of apoptosis and is highly over-expressed in tumor cells that escape cell death. The assay evaluates the cellular potency of small-molecule compounds targeting regulators of the apoptosis pathway, primarily MCL-1, Bfl-1, Bcl-2, and other proteins of the Bcl-2 family. Protein-protein inhibitors disrupting the interaction of anti-apoptotic regulators with BH3-domain proteins initiate apoptosis.
The Caspase-Glo® 3/7 Assay is a luminescent assay that measures caspase-3 and -7 activities in purified enzyme preparations or cultures of adherent or suspension cells. The assay provides a proluminescent caspase-3/7 substrate, which contains the tetrapeptide sequence DEVD. This substrate is cleaved to release aminoluciferin, a substrate of luciferase used in the production of light. Addition of the single Caspase-Glo® 3/7 Reagent in an “add-mix-measure” format results in cell lysis, followed by caspase cleavage of the substrate and generation of a “glow-type” luminescent signal.
This assay uses the MOLP-8 human multiple myeloma cell line, which is sensitive to MCL-1 inhibition.
Cell cultures were maintained between 0.2 and 2.0×10^6 cells/mL. The cells were harvested by collection in 50 mL conical tubes. The cells were then pelleted at 500 g for 5 mins before removing supernatant and resuspension in fresh pre-warmed culture medium. The cells were counted and diluted as needed.
The assay reagent was prepared by transferring the buffer solution to the substrate vial and mixing. The solution may be stored for up to 1 week at 4° C. with negligible loss of signal.
Compounds were delivered in assay-ready plates (Proxiplate) and stored at −20° C.
Assays always include 1 reference compound plate containing reference compounds. The plates were spotted with 40 nL of compounds (0.5% DMSO final in cells; serial dilution; 30 μM highest conc. 1/3 dilution, 10 doses, duplicates). The compounds were used at room temperature and 4 μL of pre-warmed media was added to all wells except column 2 and 23. The negative control was prepared by adding 1% DMSO in media. The positive control was prepared by adding the appropriate positive control compound in final concentration of 60 μM in media. The plate was prepared by adding 4 μL negative control to column 23, 4 μL positive control to column 2, and 4 μL cell suspension to all wells in the plate. The plate with cells was then incubated at 37° C. for 2 hours. The assay signal reagent is the Caspase-Glo solution described above, and 8 μL was added to all wells. The plates were then sealed and measured after 30 minutes.
The activity of a test compound was calculated as percent change in apoptosis induction as follows: […]

Sequence of Myeloid Cell Leukemia 1 (Mcl-1) (Q07820 whole entry): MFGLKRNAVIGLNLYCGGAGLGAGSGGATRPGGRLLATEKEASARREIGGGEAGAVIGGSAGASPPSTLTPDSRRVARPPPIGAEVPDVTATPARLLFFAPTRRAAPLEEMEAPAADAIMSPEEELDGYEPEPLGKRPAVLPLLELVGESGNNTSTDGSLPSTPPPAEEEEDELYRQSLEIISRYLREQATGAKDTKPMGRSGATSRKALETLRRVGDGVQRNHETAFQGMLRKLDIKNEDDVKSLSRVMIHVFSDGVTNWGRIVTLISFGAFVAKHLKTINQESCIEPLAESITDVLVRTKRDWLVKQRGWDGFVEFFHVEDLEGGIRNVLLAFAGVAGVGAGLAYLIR

Structure (SMILES)	Ki [1] [nM]	AC50 [2] [nM]	AC50 ([2]; Homo sapiens, MOLP-8, 2 h) [nM]
C[C@@H]1[C@@H](C)C/C=C(\F)C(OCCN2CCOCC2)[C@@H]2OCC[C@H]2CN2C[C@@]3(CCCc4cc(Cl)ccc43)COc3ccc(cc32)C(=O)NS1(=O)=O (single isomer, unassigned) [Compound 4]	0.192	314	–
C[C@@H]1[C@@H](C)C/C=C(\F)C(OCCN2CCOCC2)[C@@H]2OCC[C@H]2CN2C[C@@]3(CCCc4cc(Cl)ccc43)COc3ccc(cc32)C(=O)NS1(=O)=O (single isomer, unassigned) [Compound 5]	0.445	1100	–
COc1nn(C)cc1C(=O)NS1(=O)=NC(=O)c2ccc3c(c2)N(C[C@@H]2CCO[C@H]2C(OC)/C=C/C[C@H](C)C1)C[C@@]1(CCCc2cc(Cl)ccc21)CO3 (single isomer, unassigned) [Compound 8]	0.0231	34	–
COc1nn(C)cc1C(=O)NS1(=O)=NC(=O)c2ccc3c(c2)N(C[C@@H]2CCO[C@H]2C(OC)/C=C/C[C@H](C)C1)C[C@@]1(CCCc2cc(Cl)ccc21)CO3 (single isomer, unassigned) [Compound 9]	0.05	119	–
COc1nn(C)cc1C(=O)NS1(=O)=NC(=O)c2ccc3c(c2)N(C[C@@H]2CCO[C@H]2C(OC)/C=C/C[C@H](C)C1)C[C@@]1(CCCc2cc(Cl)ccc21)CO3 (single isomer, unassigned) [Compound 10]	0.401	453	–
COc1nn(C)cc1C(=O)NS1(=O)=NC(=O)c2ccc3c(c2)N(C[C@@H]2CCO[C@H]2C(OC)/C=C/C[C@H](C)C1)C[C@@]1(CCCc2cc(Cl)ccc21)CO3 (single isomer, unassigned) [Compound 11]	0.94	1310	–
COC1/C(F)=C/C[C@H](C)[C@@H](C)S(=O)(=O)NC(=O)c2cnc3c(n2)N(C[C@@H]2CCO[C@@H]12)C[C@@]1(CCCc2cc(Cl)ccc21)CO3 (single isomer, unassigned) [Compound 12]	5.23	1220	–
COC1/C(F)=C/C[C@H](C)[C@@H](C)S(=O)(=O)NC(=O)c2cnc3c(n2)N(C[C@@H]2CCO[C@@H]12)C[C@@]1(CCCc2cc(Cl)ccc21)CO3 (single isomer, unassigned) [Compound 13]	35.5	15200	–
C[C@@H]1[C@@H](C)C/C=C/C(CO)[C@@H]2OCC[C@H]2CN2C[C@@]3(CCCc4cc(Cl)ccc43)COc3ccc(cc32)C(=O)NS1(=O)=O (single isomer, unassigned) [Compound 14]	0.521	1250	–
C[C@@H]1[C@@H](C)C/C=C/C(CO)[C@@H]2OCC[C@H]2CN2C[C@@]3(CCCc4cc(Cl)ccc43)COc3ccc(cc32)C(=O)NS1(=O)=O (single isomer, unassigned) [Compound 15]	0.636	2920	–
COCCN(CCOC)CC1(OC)/C(F)=C/C[C@H](C)[C@@H](C)S(=O)(=O)NC(=O)c2ccc3c(c2)N(C[C@@H]2CCO[C@H]21)C[C@@]1(CCCc2cc(Cl)ccc21)CO3 (single isomer, unassigned) [Compound 18]	0.096	–	412
C[C@@H]1[C@@H](C)C/C=C/C(O)[C@@H]2OCC[C@H]2CN2C[C@@]3(CCCc4cc(Cl)ccc43)COc3ccc(cc32)C(=O)NS1(=O)=O (single isomer, unassigned) [Compound 19]	0.717	–	752
C[C@@H]1[C@@H](C)C/C=C/C(OCCN2CCOCC2)[C@@H]2OCC[C@H]2CN2C[C@@]3(CCCc4cc(Cl)ccc43)COc3ccc(cc32)C(=O)NS1(=O)=O (single isomer, unassigned) [Compound 20]	0.223	–	616
C[C@@H]1[C@@H](C)C/C=C(\F)C(O)(CC(=O)N(C)C)[C@@H]2OCC[C@H]2CN2C[C@@]3(CCCc4cc(Cl)ccc43)COc3ccc(cc32)C(=O)NS1(=O)=O (single isomer, unassigned) [Compound 21]	0.182	436	–
C[C@@H]1[C@@H](C)C/C=C(\F)C(O)(CC(=O)N(C)C)[C@@H]2OCC[C@H]2CN2C[C@@]3(CCCc4cc(Cl)ccc43)COc3ccc(cc32)C(=O)NS1(=O)=O (single isomer, unassigned) [Compound 22]	0.981	4830	–
COc1nn(C)cc1C(=O)NS1(=O)=NC(=O)c2ccc3c(c2)N(C[C@@H]2CCO[C@H]2C(OC)/C(F)=C/C[C@H](C)C1)C[C@@]1(CCCc2cc(Cl)ccc21)CO3 (single isomer, unassigned) [Compound 23]	0.25	2420	–
COc1nn(C)cc1C(=O)NS1(=O)=NC(=O)c2ccc3c(c2)N(C[C@@H]2CCO[C@H]2C(OC)/C(F)=C/C[C@H](C)C1)C[C@@]1(CCCc2cc(Cl)ccc21)CO3 (single isomer, unassigned) [Compound 24]	0.011	44	–
COc1nn(C)cc1C(=O)NS1(=O)=NC(=O)c2ccc3c(c2)N(C[C@@H]2CCO[C@H]2C(OC)/C(F)=C/C[C@H](C)C1)C[C@@]1(CCCc2cc(Cl)ccc21)CO3 (single isomer, unassigned) [Compound 25]	0.025	486	–
COc1nn(C)cc1C(=O)NS1(=O)=NC(=O)c2ccc3c(c2)N(C[C@@H]2CCO[C@H]2C(OC)/C(F)=C/C[C@H](C)C1)C[C@@]1(CCCc2cc(Cl)ccc21)CO3 (single isomer, unassigned) [Compound 26]	5.12	> 5000	–
COc1nn(C)cc1C(=O)NS1(=O)=NC(=O)c2ccc3c(c2)N(C[C@@H]2CCO[C@H]2C(CN2CCN4CCOC[C@@H]4C2)(OC)/C(F)=C/C[C@H](C)C1)C[C@@]1(CCCc2cc(Cl)ccc21)CO3 (single isomer, unassigned) [Compound 27]	0.048	424	–
CO[C@@]1(CN2CCN3CCOC[C@@H]3C2)/C(F)=C/C[C@H](C)[C@@H](C)S(=O)(=O)NC(=O)c2ccc3c(c2)N(C[C@@H]2CCO[C@H]21)C[C@@]1(CCCc2cc(Cl)ccc21)CO3 [Compound 6]	–	–	69
CO[C@]1(CN2CCN3CCOC[C@@H]3C2)/C(F)=C/C[C@H](C)[C@@H](C)S(=O)(=O)NC(=O)c2ccc3c(c2)N(C[C@@H]2CCO[C@H]21)C[C@@]1(CCCc2cc(Cl)ccc21)CO3 [Compound 7]	–	–	88

From US20240239812A1, “MACROCYCLIC 2-ALLYLTETRAHYDROFURANS AS INHIBITORS OF MCL-1” (JANSSEN PHARMACEUTICA NV, priority 2021, published 2024)
